Experimental data taken from article PMC9007462 (Journal of Medicinal Chemistry, 2022).

What was measured:
Human ALDH1A1 [1] = molecular target: T1, Human ALDH1A1 (Homo sapiens, UniProt P00352); experiment: ALDH1A1 inhibition, IC50 determination; type: biochemical; conditions: 5 μM hexanal as substrate; mean ± SE
T1 construct: made in house
T1 sequence (P00352 1-501): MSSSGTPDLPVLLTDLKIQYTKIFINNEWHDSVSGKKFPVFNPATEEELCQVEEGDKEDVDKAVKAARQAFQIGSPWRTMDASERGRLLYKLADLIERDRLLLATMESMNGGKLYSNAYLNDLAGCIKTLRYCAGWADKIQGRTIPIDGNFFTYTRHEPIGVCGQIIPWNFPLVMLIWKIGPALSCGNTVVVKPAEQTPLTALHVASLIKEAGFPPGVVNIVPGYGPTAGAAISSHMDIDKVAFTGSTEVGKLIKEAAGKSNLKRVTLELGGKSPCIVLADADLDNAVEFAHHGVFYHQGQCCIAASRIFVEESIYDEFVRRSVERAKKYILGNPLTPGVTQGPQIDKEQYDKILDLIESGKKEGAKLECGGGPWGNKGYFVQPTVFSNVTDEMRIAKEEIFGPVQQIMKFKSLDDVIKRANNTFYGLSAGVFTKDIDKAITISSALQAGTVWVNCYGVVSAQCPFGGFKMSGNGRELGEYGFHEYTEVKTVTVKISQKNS
Protocol: (§1) Human ALDH1A1, ALDH1A3, and ALDH3A1 were cloned and recombinantly expressed from the pET-30 Xa/LIC vector. Protein purification was achieved by affinity chromatography on a nickel-charged chelating Sepharose Fast Flow 5-mL column (His Trap column, Cytiva), which specifically binds the protein due to its N-terminal (His)6 tag, using an ÄKTA FPLC system (Cytiva), as previously described.[55] Enzymes including the His tag were stored at −80 °C in 20 mM Tris/HCl and 0.5 M NaCl, pH 8.0, until use. Reaction buffers were as follows: ALDH1A1 was assayed in 50 mM HEPES, 0.5 mM EDTA, and 0.5 mM DTT, pH 8.0; ALDH1A3 was assayed in 50 mM HEPES, 30 mM MgCl2, and 5 mM DTT, pH 8.0; and ALDH3A1 was assayed in 50 mM Tris–HCl and 5 mM DTT, pH 8.0. Activity under standard conditions was measured fluorimetrically at 25 °C using a Cary Eclipse (Varian) fluorimeter to follow the purification procedure and to check the enzyme concentration before each kinetic experiment. The fluorescence of NADH was characterized at 460 nm with excitation at 340 nm, and 5 μM NAD(P)H was added as an internal standard to obtain the absolute reaction rates.[55] Standard activity was measured at saturating concentrations of substrate using 30 μM hexanal (ALDH1A1), 250 μM hexanal (ALDH1A3), or 250 μM 4-NBA (ALDH3A1). NAD^+ was 500 μM for ALDH1A1 and ALDH1A3, and NADP^+ was 1 mM for ALDH3A1.
(§2) In order to determine the IC50 values, reaction rates were determined at various concentrations of inhibitor at a fixed concentration of substrate. As substrates for ALDH1A1, ALDH1A3, and ALDH3A1, 5 μM hexanal, 6 μM hexanal, and 31 μM 4-NBA, respectively, were used. The IC50 values were calculated by nonlinear fitting of the obtained data to a sigmoidal plot using GraFit 5.0 (Erithacus software), with the following 4-parameter equation [drawing 2] , where y is the specific activity, x is the inhibitor concentration, background is the minimum y value, range is the fitted uninhibited value minus the background, and s is the slope factor. Values are expressed as the mean ± SE.

LNCaP = experiment: MTT chemosensitivity assay, LNCaP; type: cell-based, human; conditions: Homo sapiens, LNCaP, 96 h exposure, ± SD, at least three independent experiments
Protocol: (§3) MTT (3-(4, 5-dimethyl-2-thiazolyl)-2, 5-diphenyl-2H-tetrazolium bromide) assay was used to determine cell viability.[64] Immortalized PCa cells (PC-3, Du-145, and LNCaP) were seeded in 96-well plates and allowed to adhere overnight at 37 °C, 5% CO2, and 100% humidity. […] After 96 h of exposure, 200 μL of MTT (Sigma) solution (0.5 mg/mL) was added to each well and incubated at 37 °C for 4 h. The formazan crystals were dissolved in DMSO (Sigma), and the absorbance was read using a microplate reader (Multiskan EX; Thermo Fisher Scientific) at 540 nm. Data analysis was performed using Microsoft Excel 2013 and GraphPad Prism software.

DU145 = experiment: MTT chemosensitivity assay, DU145; type: cell-based, human; conditions: Homo sapiens, DU-145, 96 h exposure, ± SD, at least three independent experiments
Protocol: as §3

Human ALDH1A3 [2] = molecular target: T2, Human ALDH1A3 (Homo sapiens, UniProt P47895); experiment: ALDH1A3 inhibition, IC50, Ki and type of inhibition; type: biochemical; conditions: 6 μM hexanal as substrate; mean ± SE
T2 construct: made in house
T2 sequence (P47895 1-512): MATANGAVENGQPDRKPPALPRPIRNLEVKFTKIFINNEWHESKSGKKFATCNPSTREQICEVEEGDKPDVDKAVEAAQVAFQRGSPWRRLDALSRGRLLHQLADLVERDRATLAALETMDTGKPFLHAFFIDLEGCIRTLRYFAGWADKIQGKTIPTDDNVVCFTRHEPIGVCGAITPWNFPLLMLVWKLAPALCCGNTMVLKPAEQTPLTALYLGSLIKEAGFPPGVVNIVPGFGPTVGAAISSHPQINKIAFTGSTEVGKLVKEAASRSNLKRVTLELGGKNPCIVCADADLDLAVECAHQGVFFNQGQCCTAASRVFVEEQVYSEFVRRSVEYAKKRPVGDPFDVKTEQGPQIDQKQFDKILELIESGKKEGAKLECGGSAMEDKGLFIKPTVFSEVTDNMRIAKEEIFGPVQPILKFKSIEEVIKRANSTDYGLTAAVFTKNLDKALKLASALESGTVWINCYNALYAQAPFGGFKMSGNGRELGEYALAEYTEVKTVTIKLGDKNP
Protocol: Human ALDH1A1, ALDH1A3, and ALDH3A1 were cloned and recombinantly expressed from the pET-30 Xa/LIC vector. Protein purification was achieved by affinity chromatography on a nickel-charged chelating Sepharose Fast Flow 5-mL column (His Trap column, Cytiva), which specifically binds the protein due to its N-terminal (His)6 tag, using an ÄKTA FPLC system (Cytiva), as previously described.[55] Enzymes including the His tag were stored at −80 °C in 20 mM Tris/HCl and 0.5 M NaCl, pH 8.0, until use. Reaction buffers were as follows: ALDH1A1 was assayed in 50 mM HEPES, 0.5 mM EDTA, and 0.5 mM DTT, pH 8.0; […] Activity under standard conditions was measured fluorimetrically at 25 °C using a Cary Eclipse (Varian) fluorimeter to follow the purification procedure and to check the enzyme concentration before each kinetic experiment. […] In order to determine the IC50 values, reaction rates were determined at various concentrations of inhibitor at a fixed concentration of substrate. […] Values are expressed as the mean ± SE. […] The data of enzymatic activities at different inhibitor concentrations were fitted to the Michaelis–Menten equation to determine the values of Km and Vmax. Next, results were fitted to the equations for competitive, given by [drawing 3]; noncompetitive, given by [drawing 4]; uncompetitive, given by [drawing 5]; and mixed, given by [drawing 6] .[56] The type of inhibition was selected based on the lowest error value. Parameters were expressed as the mean ± SE.

PC3 = experiment: MTT chemosensitivity assay, PC3; type: cell-based, human; conditions: Homo sapiens, PC-3, 96 h exposure, ± SD, at least three independent experiments
Protocol: as §3

Human ALDH1A3 [3] = molecular target: T2, Human ALDH1A3; experiment: Inhibition screening, single point at 10 μM, ALDH1A3; type: biochemical; conditions: 10 μM compound; hexanal as substrate (Figure S1)
Protocol: as §1, with “Reaction buffers were as follows: ALDH1A1 was assayed in 50 mM HEPES, 0.5 mM EDTA, and 0.5 mM DTT, pH 8.0; ALDH1A3 was assayed in 50 mM HEPES, 30 mM MgCl2, and 5 mM DTT, pH 8.0; and ALDH3A1 was assayed in 50 mM Tris–HCl and 5 mM DTT, pH 8.0.” left out, “NAD^+ was 500 μM for ALDH1A1 and ALDH1A3, and NADP^+ was 1 mM for ALDH3A1.” left out
All compounds tested were dissolved in DMSO and assayed at a final concentration of 1% (v/v) DMSO. […] Alternatively, the enzymatic activity was measured in a Varian Cary 400 UV–vis spectrophotometer, by monitoring the increase in the absorbance of NAD(P)H at 340 nm (ε = 6.22 mM^–1·cm^–1) or in a Cary Eclipse Varian fluorimeter, as described above. […]

Human ALDH1A1 [4] = molecular target: T1, Human ALDH1A1; experiment: DEAB analogues as substrates of ALDH1A1; type: biochemical; conditions: 10 μM compound as substrate, relative to activity with 10 μM hexanal (Figure S2)
Protocol: as §1
According to their structure with a carbonyl group, compounds were tested for their substrate properties against ALDH1A1, ALDH1A3, and ALDH3A1. […] Results are expressed as the percentage of activity at 10 μM versus the activity at 10 μM of their standard substrate (hexanal or 4-NBA). Values are expressed as the mean ± SE.

Human ALDH1A1 [5] = molecular target: T1, Human ALDH1A1; experiment: Inhibition screening, single point at 10 μM, ALDH1A1; type: biochemical; conditions: 10 μM compound; 5 μM hexanal (Figure S1)
Protocol: as §1
All compounds tested were dissolved in DMSO and assayed at a final concentration of 1% (v/v) DMSO. […] For the initial screening, the enzymatic activity was measured in 96-well plates (final volume of 200 μL) in a Victor 3 Multilabel Plate Reader (Perkin Elmer), by monitoring the fluorescence of the NAD(P)H produced during the reaction (excitation at 340 nm and emission at 460 nm). Alternatively, the enzymatic activity was measured in a Varian Cary 400 UV–vis spectrophotometer, by monitoring the increase in the absorbance of NAD(P)H at 340 nm (ε = 6.22 mM^–1·cm^–1) or in a Cary Eclipse Varian fluorimeter, as described above. […] For ALDH1A1, 5 μM hexanal (Sigma) was used. For ALDH1A3, 10 and 250 μM hexanal (Sigma) were used. For ALDH3A1, 4-NBA (Sigma) was used at 31 and 250 μM. All substrates were prepared in the corresponding assay buffer at a concentration of 2 mM and further diluted to reach the final concentrations required per experiment. The concentration of the enzyme was kept from 50- to 100-fold lower than that of the substrate for all enzymatic assays.

Human ALDH3A1 = molecular target: T3, Human ALDH3A1 (Homo sapiens, UniProt P30838); experiment: ALDH3A1 inhibition, IC50, Ki and type of inhibition; type: biochemical
T3 construct: made in house
T3 sequence (P30838 1-453): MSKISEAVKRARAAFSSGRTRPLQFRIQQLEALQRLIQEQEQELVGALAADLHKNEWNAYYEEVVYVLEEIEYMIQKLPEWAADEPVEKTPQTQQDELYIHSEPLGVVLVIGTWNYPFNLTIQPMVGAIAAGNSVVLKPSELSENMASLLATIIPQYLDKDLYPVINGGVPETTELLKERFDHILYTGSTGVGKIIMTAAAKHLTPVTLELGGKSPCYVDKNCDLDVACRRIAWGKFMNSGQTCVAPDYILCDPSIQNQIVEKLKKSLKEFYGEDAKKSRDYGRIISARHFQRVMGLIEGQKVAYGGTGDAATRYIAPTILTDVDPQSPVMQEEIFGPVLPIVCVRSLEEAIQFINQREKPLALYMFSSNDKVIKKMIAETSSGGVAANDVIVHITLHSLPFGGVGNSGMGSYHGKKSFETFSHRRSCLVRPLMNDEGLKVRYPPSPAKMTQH
Protocol: as §1, §2
Activity assays to determine the type of inhibition and Ki value were performed using various substrate and inhibitor concentrations maintaining the same conditions as for the IC50 experiments and using GraFit 5.0 for data processing. The data of enzymatic activities at different inhibitor concentrations were fitted to the Michaelis–Menten equation to determine the values of Km and Vmax. Next, results were fitted to the equations for competitive, given by [drawing 3]; noncompetitive, given by [drawing 4]; uncompetitive, given by [drawing 5]; and mixed, given by [drawing 6] .[56] The type of inhibition was selected based on the lowest error value. Parameters were expressed as the mean ± SE.

Row | SMILES | IC50 (Human ALDH1A1 [1]) [µM] | IC50 (LNCaP) [µM] | IC50 (DU145) [µM] | IC50 (Human ALDH1A3 [2]) [µM] | IC50 (PC3) [µM] | remaining ALDH1A3 activity (Human ALDH1A3 [3]) [%] | ALDH1A1 substrate activity (Human ALDH1A1 [4]) [%] | remaining ALDH1A1 activity (Human ALDH1A1 [5]) [%] | IC50 (Human ALDH3A1; 31 μM 4-NBA as substrate, mean ± SE) [µM] | type of inhibition ALDH3A1 (Human ALDH3A1; 4-NBA as substrate) | Ki (Human ALDH3A1; 4-NBA as substrate, fit to competitive inhibition equation, mean ± SE) [µM]
1 | CCN(CC)c1ccc(C=O)cc1Br [Compound 13, 3-Bromo-4-(diethylamino)benzaldehyde] |  | 47 ± 0.6 | 123 ± 12 | 10.7 ± 1.3 | 166 ± 41 |  | ~60 | 24 |  |  | 
2 | CCCN(CCC)c1ccc(C=O)cc1 [Compound 1, 4-(Dipropylamino)benzaldehyde] |  | 73 ± 14 | 190 ± 25 |  | > 200 |  |  | 12 |  |  | 
3 | CCN(CC)c1ccc(C=O)cc1[N+](=O)[O-] [Compound 19, 4-(Diethylamino)-3-Nitrobenzaldehyde] |  | 136 ± 13 | > 200 |  | > 200 |  | 69 |  | 1.29 ± 0.15 | competitive | 0.24 ± 0.04

Now from value to compound:

Row | IC50 (Human ALDH1A1 [1]) [µM] | IC50 (LNCaP) [µM] | IC50 (DU145) [µM] | IC50 (Human ALDH1A3 [2]) [µM] | IC50 (PC3) [µM] | remaining ALDH1A3 activity (Human ALDH1A3 [3]) [%] | ALDH1A1 substrate activity (Human ALDH1A1 [4]) [%] | remaining ALDH1A1 activity (Human ALDH1A1 [5]) [%] | IC50 (Human ALDH3A1; 31 μM 4-NBA as substrate, mean ± SE) [µM] | type of inhibition ALDH3A1 (Human ALDH3A1; 4-NBA as substrate) | Ki (Human ALDH3A1; 4-NBA as substrate, fit to competitive inhibition equation, mean ± SE) [µM] | SMILES
4 | 0.8 ± 0.16 | 172 ± 8 | > 200 | 1.15 ± 0.15 | > 200 |  |  |  |  |  |  | Cc1cc(C=O)ccc1N1CCCC1 [Compound 26, 3-Methyl-4-(pyrrolidin-1-yl)benzaldehyde]
5 | 0.88 ± 0.05 |  |  | 4.86 ± 0.81 |  |  |  |  |  |  |  | COc1cc(C=O)ccc1N1CCCC1 [Compound 29, 3-Methoxy-4-(pyrrolidin-1-yl)benzaldehyde]
6 |  |  |  |  |  | 10 |  |  |  |  |  | Cc1cc(C=O)ccc1N1CCOCC1 [Compound 27, 3-Methyl-4-morpholinobenzaldehyde]
7 |  |  |  | 0.31 ± 0.03 |  |  |  | 17 |  |  |  | O=Cc1ccc(N2CCCC2)c(Cl)c1 [Compound 12, 3-Chloro-4-(pyrrolidin-1-yl)benzaldehyde]
